As usually defined, the IC50 is the concentration needed to halve the response being measured.

Active and inactive are the calls of the source. Rule as the data show it: actives have a measured IC50 and inactives only a lower limit.

The target in this assay is T1, Sentrin-specific protease 6 (Homo sapiens, UniProt Q9GZR1).
T1 sequence (Q9GZR1 whole entry): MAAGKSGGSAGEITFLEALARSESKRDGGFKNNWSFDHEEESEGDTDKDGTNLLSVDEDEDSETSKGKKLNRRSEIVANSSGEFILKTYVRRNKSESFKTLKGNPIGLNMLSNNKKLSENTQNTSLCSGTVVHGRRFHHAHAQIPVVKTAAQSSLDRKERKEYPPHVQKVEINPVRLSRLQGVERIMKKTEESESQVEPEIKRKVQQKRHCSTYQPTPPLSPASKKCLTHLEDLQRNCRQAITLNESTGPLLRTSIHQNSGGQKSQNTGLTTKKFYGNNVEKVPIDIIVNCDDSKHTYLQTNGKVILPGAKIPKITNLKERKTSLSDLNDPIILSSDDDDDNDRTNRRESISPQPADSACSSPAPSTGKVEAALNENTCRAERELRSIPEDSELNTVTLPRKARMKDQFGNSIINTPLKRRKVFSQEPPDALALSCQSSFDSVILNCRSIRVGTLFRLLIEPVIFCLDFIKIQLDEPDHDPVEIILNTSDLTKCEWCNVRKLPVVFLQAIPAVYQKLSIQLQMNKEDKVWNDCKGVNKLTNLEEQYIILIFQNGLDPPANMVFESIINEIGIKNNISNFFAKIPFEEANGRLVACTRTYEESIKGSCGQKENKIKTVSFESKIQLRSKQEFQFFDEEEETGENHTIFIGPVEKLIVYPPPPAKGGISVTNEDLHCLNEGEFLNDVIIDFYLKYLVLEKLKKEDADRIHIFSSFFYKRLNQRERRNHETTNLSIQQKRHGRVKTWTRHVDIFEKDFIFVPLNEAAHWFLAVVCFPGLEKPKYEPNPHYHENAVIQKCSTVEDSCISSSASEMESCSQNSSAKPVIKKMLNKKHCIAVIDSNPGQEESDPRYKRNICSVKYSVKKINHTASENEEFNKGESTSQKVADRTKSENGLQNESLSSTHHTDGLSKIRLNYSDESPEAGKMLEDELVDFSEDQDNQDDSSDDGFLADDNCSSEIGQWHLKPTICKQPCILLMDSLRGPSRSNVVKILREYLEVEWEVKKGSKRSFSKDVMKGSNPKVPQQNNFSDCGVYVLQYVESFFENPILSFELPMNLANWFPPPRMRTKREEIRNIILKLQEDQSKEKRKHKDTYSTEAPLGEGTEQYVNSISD
The assay is classed as functional.
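Also: Luminescence-based dose-response confirmatory assay of SENP6 inhibition, following up an ultra-high-throughput screen.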

`N#Cc1c(N2CCCCC2)nc(N)c2c(N)nc(SCC(=O)O)cc12`: the IC50 was 8.26 µM (active).

Values taken from ChEMBL document CHEMBL1201862, “PubChem BioAssay data set” (2004).
